Experimental data reported in ChEMBL document CHEMBL3580659, “One-pot multicomponent synthesis of indole incorporated thiazolylcoumarins and their antibacterial, anticancer and DNA cleavage studies” (2015).

Experiments:
Assay type in all cases: functional
NCI-H522 [1] = assay: Cytotoxicity against human NCI-H522 cells assessed as cell growth level at 1 uM after 48 hrs by sulforhodamine B assay
MOLT-4 [2] = assay: Cytotoxicity against human MOLT4 cells assessed as cell growth level at 10 uM after 48 hrs by sulforhodamine B assay
HCT-116 [3] = assay: Cytotoxicity against human HCT116 cells assessed as cell growth level at 10 uM after 48 hrs by sulforhodamine B assay
RXF 393 [4] = assay: Cytotoxicity against human RXF393 cells assessed as cell growth level at 100 uM after 48 hrs by sulforhodamine B assay
ACHN = assay: Cytotoxicity against human ACHN cells assessed as cell growth level at 1 uM after 48 hrs by sulforhodamine B assay
A549 = assay: Cytotoxicity against human A549/ATCC cells after 48 hrs by sulforhodamine B assay; conditions: A549, 48 h
DU-145 [5] = assay: Cytotoxicity against human DU145 cells assessed as cell growth level at 100 nM after 48 hrs by sulforhodamine B assay
LOX IMVI = assay: Cytotoxicity against human LOXIMVI cells assessed as cell growth level at 10 nM after 48 hrs by sulforhodamine B assay
MOLT-4 [6] = assay: Cytotoxicity against human MOLT4 cells after 48 hrs by sulforhodamine B assay; conditions: MOLT-4, 48 h
SNB-19 = assay: Cytotoxicity against human SNB19 cells assessed as cell growth level at 100 uM after 48 hrs by sulforhodamine B assay
HCT-116 [7] = assay: Cytotoxicity against human HCT116 cells after 48 hrs by sulforhodamine B assay; conditions: HCT-116, 48 h
SR [8] = assay: Cytotoxicity against human SR cells assessed as cell growth level at 100 uM after 48 hrs by sulforhodamine B assay
SR [9] = assay: Cytotoxicity against human SR cells assessed as cell growth level at 1 uM after 48 hrs by sulforhodamine B assay
MOLT-4 [10] = assay: Cytotoxicity against human MOLT4 cells assessed as cell growth level at 100 nM after 48 hrs by sulforhodamine B assay
[11] = Cytotoxicity against human NCI-ADR-RES cells assessed as cell growth level at 1 uM after 48 hrs by sulforhodamine B assay
HCT-15 = assay: Cytotoxicity against human HCT15 cells assessed as cell growth level at 100 uM after 48 hrs by sulforhodamine B assay
NCI-H226 = assay: Cytotoxicity against human NCI-H226 cells assessed as cell growth level at 100 nM after 48 hrs by sulforhodamine B assay
CAKI-1 [12] = assay: Cytotoxicity against human CAKI-1 cells assessed as cell growth level at 10 uM after 48 hrs by sulforhodamine B assay
Malme-3M = assay: Cytotoxicity against human MALME-3M cells after 48 hrs by sulforhodamine B assay
K562 = assay: Cytotoxicity against human K562 cells assessed as cell growth level at 10 nM after 48 hrs by sulforhodamine B assay
HT-29 = assay: Cytotoxicity against human HT-29 cells assessed as cell growth level at 10 uM after 48 hrs by sulforhodamine B assay
SF-295 = assay: Cytotoxicity against human SF295 cells assessed as cell growth level at 1 uM after 48 hrs by sulforhodamine B assay
NCI-H460 = assay: Cytotoxicity against human NCI-H460 cells assessed as cell growth level at 1 uM after 48 hrs by sulforhodamine B assay
OVCAR-3 = assay: Cytotoxicity against human OVCAR3 cells assessed as cell growth level at 100 uM after 48 hrs by sulforhodamine B assay
CAKI-1 [13] = assay: Cytotoxicity against human CAKI-1 cells assessed as cell growth level at 10 nM after 48 hrs by sulforhodamine B assay
OVCAR-5 = assay: Cytotoxicity against human OVCAR5 cells assessed as cell growth level at 1 uM after 48 hrs by sulforhodamine B assay
OVCAR-4 [14] = assay: Cytotoxicity against human OVCAR4 cells assessed as cell growth level at 10 uM after 48 hrs by sulforhodamine B assay
NCI-H522 [15] = assay: Cytotoxicity against human NCI-H522 cells assessed as cell growth level at 100 uM after 48 hrs by sulforhodamine B assay
RXF 393 [16] = assay: Cytotoxicity against human RXF393 cells assessed as cell growth level at 100 nM after 48 hrs by sulforhodamine B assay
Escherichia coli = assay: Antibacterial activity against Escherichia coli assessed as bacterial growth inhibition at 50 ug/ml after 24 hrs by cup-plate agar diffusion method; conditions: read-out: IZ
UO-31 [17] = assay: Cytotoxicity against human UO31 cells assessed as cell growth level at 100 uM after 48 hrs by sulforhodamine B assay
CAKI-1 [18] = assay: Cytotoxicity against human CAKI-1 cells assessed as cell growth level at 100 nM after 48 hrs by sulforhodamine B assay
DU-145 [19] = assay: Cytotoxicity against human DU145 cells assessed as cell growth level at 1 uM after 48 hrs by sulforhodamine B assay
UO-31 [20] = assay: Cytotoxicity against human UO31 cells assessed as cell growth level at 1 uM after 48 hrs by sulforhodamine B assay
SK-MEL-5 = assay: Cytotoxicity against human SK-MEL-5 cells after 48 hrs by sulforhodamine B assay; conditions: SK-MEL-5, 48 h
UACC-62 = assay: Cytotoxicity against human UACC62 cells assessed as cell growth level at 100 nM after 48 hrs by sulforhodamine B assay
OVCAR-4 [21] = assay: Cytotoxicity against human OVCAR4 cells assessed as cell growth level at 100 uM after 48 hrs by sulforhodamine B assay
DU-145 [22] = assay: Cytotoxicity against human DU145 cells assessed as cell growth level at 100 uM after 48 hrs by sulforhodamine B assay
786-0 = assay: Cytotoxicity against human 786-0 cells after 48 hrs by sulforhodamine B assay; conditions: 786-0, 48 h
[23] = read-out: LC50 (the source's name)
[24] = read-out: pLC50 (the source's name) (converted)

SMILES: O=c1oc2ccccc2cc1-c1csc(N/N=C/c2c[nH]c3ccccc23)n1
- Activity (NCI-H522 [1]): 103%
- Activity (MOLT-4 [2]): -32.32%
- Activity (HCT-116 [3]): 7.48%
- Activity (RXF 393 [4]): -6%
- Activity (ACHN): 72%
- GI50 (A549; read-out: GI50): 1.54 µM
- CC50 (A549; [23]): > 100 µM
- TGI (A549; read-out: TGI): 5.3 µM
- GI50 (A549; read-out: pGI50 (converted)): 1.55 µM
- CC50 (A549; [24]): > 100 µM
- TGI (A549; read-out: pTGI): 5.25 µM
- Activity (DU-145 [5]): 92%
- Activity (LOX IMVI): 91%
- GI50 (MOLT-4 [6]; read-out: GI50): 0.4 µM
- LC50 (MOLT-4 [6]; read-out: LC50): > 100 µM
- TGI (MOLT-4 [6]; read-out: TGI): 3.27 µM
- GI50 (MOLT-4 [6]; read-out: pGI50 (converted)): 0.407 µM
- LC50 (MOLT-4 [6]; read-out: pLC50 (converted)): > 100 µM
- TGI (MOLT-4 [6]; read-out: pTGI (converted)): 3.24 µM
- Activity (SNB-19): -44%
- GI50 (HCT-116 [7]; read-out: GI50): 1.6 µM
- CC50 (HCT-116 [7]; [23]): 6.49 µM
- TGI (HCT-116 [7]; read-out: TGI): 3.22 µM
- GI50 (HCT-116 [7]; read-out: pGI50 (converted)): 1.58 µM
- CC50 (HCT-116 [7]; [24]): 6.46 µM
- TGI (HCT-116 [7]; read-out: pTGI (converted)): 3.24 µM
- Activity (SR [8]): -46%
- Activity (SR [9]): 81%
- Activity (MOLT-4 [10]): 97%
- Activity [11]: 104%
- Activity (HCT-15): -48%
- Activity (NCI-H226): 104%
- Activity (CAKI-1 [12]): -41.32%
- GI50 (Malme-3M; read-out: GI50): 1.59 µM
- CC50 (Malme-3M; [23]): > 100 µM
- TGI (Malme-3M; read-out: TGI): 4.17 µM
- GI50 (Malme-3M; read-out: pGI50 (converted)): 1.58 µM
- CC50 (Malme-3M; [24]): > 100 µM
- TGI (Malme-3M; read-out: pTGI (converted)): 4.17 µM
- Activity (K562): 95%
- Activity (HT-29): 32.14%
- Activity (SF-295): 80%
- Activity (NCI-H460): 52%
- Activity (OVCAR-3): -2%
- Activity (CAKI-1 [13]): 95%
- Activity (OVCAR-5): 87%
- Activity (OVCAR-4 [14]): -4.09%
- Activity (NCI-H522 [15]): -80%
- Activity (RXF 393 [16]): 93%
- zone of inhibition at 50 µg/mL (Escherichia coli): 15 mm
- Activity (UO-31 [17]): -52%
- Activity (CAKI-1 [18]): 88%
- Activity (DU-145 [19]): 80%
- Activity (UO-31 [20]): 46%
- GI50 (SK-MEL-5; read-out: GI50): 2.09 µM
- CC50 (SK-MEL-5; [23]): 15.2 µM
- TGI (SK-MEL-5; read-out: TGI): 4.97 µM
- GI50 (SK-MEL-5; read-out: pGI50 (converted)): 2.09 µM
- CC50 (SK-MEL-5; [24]): 15.1 µM
- TGI (SK-MEL-5; read-out: pTGI (converted)): 5.01 µM
- Activity (UACC-62): 96%
- Activity (OVCAR-4 [21]): -24%
- Activity (DU-145 [22]): -2%
- GI50 (786-0; read-out: GI50): 1.35 µM
- CC50 (786-0; [23]): > 100 µM
- TGI (786-0; read-out: TGI): 4.09 µM
- GI50 (786-0; read-out: pGI50 (converted)): 1.35 µM
- CC50 (786-0; [24]): > 100 µM
- TGI (786-0; read-out: pTGI (converted)): 4.07 µM
